Results taken from patent US20230086702A1, “SUBSTITUTED 2-AMINO-PYRAZOLYL-[1,2,4]TRIAZOLO[1,5A]PYRIDINE DERIVATIVES AND USE THEREOF” (The Johns Hopkins University, priority 2019, published 2023).

Legend:
DLK = biological target: T1, DLK (Homo sapiens, UniProt Q12852); test: DLK biochemical assay (TR-FRET, MKK7 phosphorylation); settings: DLK catalytic domain, MKK7 substrate, 60 μM ATP
T1 construct: 10 nM DLK, catalytic domain, Carna Biosiences; purchased Carna Biosciences ('Carna Biosiences' [sic])
T1 sequence (Q12852 125-366 limits assumed): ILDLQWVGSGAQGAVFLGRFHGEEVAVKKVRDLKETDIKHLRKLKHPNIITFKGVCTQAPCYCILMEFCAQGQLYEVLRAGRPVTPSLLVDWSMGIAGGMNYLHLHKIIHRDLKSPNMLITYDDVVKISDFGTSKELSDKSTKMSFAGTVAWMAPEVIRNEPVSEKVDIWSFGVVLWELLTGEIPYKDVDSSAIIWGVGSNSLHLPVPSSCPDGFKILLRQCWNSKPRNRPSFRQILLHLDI
Outline: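 Human DLK activity measured as phosphorylation of His-tagged MKK7 at T275/S277, detected by TR-FRET between Eu-anti-phospho-MKK7 donor (excitation 340 nm) and XL665-anti-His acceptor (665 nm). Signal taken as the XL665/Eu ratio. Detection buffer: 25 mM Tris/HCl pH 7.5, 100 mM EDTA, 100 mM NaCl, 200 mM KF, 0.01% Tween 20.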

LZK = biological target: T2, LZK (Homo sapiens, UniProt O43283); test: LZK biochemical assay (TR-FRET, MKK7 phosphorylation); settings: LZK catalytic domain, MKK7 substrate, 15 μM ATP
T2 construct: 10 nM LZK, catalytic domain, Carna Biosiences in assay buffer; purchased Carna Biosciences ('Carna Biosiences' [sic])
T2 sequence (O43283 168-409 limits assumed): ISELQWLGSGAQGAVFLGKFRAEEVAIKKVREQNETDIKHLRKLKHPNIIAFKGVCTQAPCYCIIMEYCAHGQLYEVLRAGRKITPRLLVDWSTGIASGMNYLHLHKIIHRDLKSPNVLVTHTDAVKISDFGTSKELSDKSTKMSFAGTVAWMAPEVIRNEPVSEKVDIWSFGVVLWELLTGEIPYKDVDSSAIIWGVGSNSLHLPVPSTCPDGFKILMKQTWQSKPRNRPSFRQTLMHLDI

| SMILES | IC50 (DLK) | IC50 (LZK) |
| --- | --- | --- |
| CC(CF)NC(=O)c1cc(-c2cnn(Cc3cccc4cn[nH]c34)c2)cn2nc(N)nc12 (racemic) [Example I-138, 2-Amino-N-(1-fluoropropan-2-yl)-6-{1-[(1H-indazol-7-yl)methyl]-1H-pyrazol-4-yl} [1,2,4]triazolo[1,5-a]pyridine-8-carboxamide] | 3 nM | 190 nM |
| CCC(c1ccc(C(F)(F)F)nc1)n1cc(-c2cc(C(=O)NC(C)(C)CO)c3nc(N)nn3c2)cn1 (racemic) [Example I-163, 2-Amino-N-(1-hydroxy-2-methylpropan-2-yl)-6-(1-{1-[6-(trifluoromethyl)pyridin-3-yl]propyl}-1H-pyrazol-4-yl)[1,2,4]triazolo[1,5-a]pyridine-8-carboxamide] | 7.6 nM | 30 nM |
| CC(C)(CO)NC(=O)c1cc(-c2cnn(C(c3ccc(C(F)(F)F)nc3)C3CCOCC3)c2)cn2nc(N)nc12 (racemic) [Example I-166, 2-Amino-N-(1-hydroxy-2-methylpropan-2-yl)-6-(1-{tetrahydro-2H-pyran-4-yl[6-(trifluoromethyl)pyridin-3-yl]methyl}-1H-pyrazol-4-yl)[1,2,4]triazolo[1,5-a]pyridine-8-carboxamide] | 4.2 nM | 20 nM |
| CCC(c1ccc(OC(F)(F)F)nc1)n1cc(-c2cc(C(=O)NC(C)(C)CO)c3nc(N)nn3c2)cn1 (racemic) [Example I-169, 2-Amino-N-(1-hydroxy-2-methylpropan-2-yl)-6-(1-{1-[6-(trifluoromethoxy)pyridin-3-yl]propyl}-1H-pyrazol-4-yl)[1,2,4]triazolo[1,5-a]pyridine-8-carboxamide] | 26 nM | 71 nM |
| CC(C)C(c1cncc(Cl)c1)n1cc(-c2cc(C(=O)NC(C)(C)CO)c3nc(N)nn3c2)cn1 (racemic) [Example I-172, 2-Amino-6-{1-[1-(5-chloropyridin-3-yl)-2-methylpropyl]-1H-pyrazol-4-yl}-N-(1-hydroxy-2-methylpropan-2-yl)[1,2,4]triazolo[1,5-a]pyridine-8-carboxamide] | 4 nM | 76 nM |
| CC[C@H](C)NC(=O)c1cc(-c2cnn(C3CCOc4ccccc43)c2)cc2nc(N)nn12 (single isomer, unassigned) [Example I-17] | 22 nM | 4.7 nM |
| CC[C@H](C)NC(=O)c1cc(-c2cnn(C3CCOc4ccccc43)c2)cc2nc(N)nn12 (single isomer, unassigned) [Example I-18] | 47 nM | 6 nM |
| CC[C@H](C)NC(=O)c1cc(-c2cnn(Cc3cccc4cn[nH]c34)c2)cn2nc(N)nc12 (single isomer, unassigned) [Example I-23] | 2.7 nM | 56 nM |
| CC[C@H](C)NC(=O)c1cc(-c2cnn(C(c3ccccc3)C(C)C)c2)cc2nc(N)nn12 (single isomer, unassigned) [Example I-25] | 23 nM | 140 nM |
| CC[C@H](C)NC(=O)c1cc(-c2cnn([C@H](c3ccccc3)C(C)C)c2)cc2nc(N)nn12 (single isomer, unassigned) [Example I-26] | 1.1 nM | 18 nM |
| CC[C@H](C)NC(=O)c1cc(-c2cnn(C(c3ccccc3)C3CC(F)(F)C3)c2)cn2nc(N)nc12 (single isomer, unassigned) [Example I-32] | 56 nM | 180 nM |
| CC[C@H](C)NC(=O)c1cc(-c2cnn(C(c3ccccc3)C3CC(F)(F)C3)c2)cn2nc(N)nc12 (single isomer, unassigned) [Example I-33] | 2.2 nM | 59 nM |
| CC[C@H](C)NC(=O)c1cc(-c2cnn(C(c3ccccc3)C(C)(C)C)c2)cn2nc(N)nc12 (single isomer, unassigned) [Example I-35] | 410 nM | 990 nM |
| CC[C@H](C)NC(=O)c1cc(-c2cnn(C(c3ccccc3)C(C)(C)C)c2)cn2nc(N)nc12 (single isomer, unassigned) [Example I-36] | 25 nM | 180 nM |
| CC[C@H](C)NC(=O)c1cc(-c2cnn(C(CC(F)(F)F)c3ccccc3)c2)cn2nc(N)nc12 (single isomer, unassigned) [Example I-38] | 1.3 nM | 91 nM |
| CC[C@H](C)NC(=O)c1cc(-c2cnn(C(CC(F)(F)F)c3ccccc3)c2)cn2nc(N)nc12 (single isomer, unassigned) [Example I-39] | 24 nM | 230 nM |
| CC[C@H](C)NC(=O)c1cc(-c2cnn(C(c3ccc(F)cc3)C(C)C)c2)cn2nc(N)nc12 (single isomer, unassigned) [Example I-44] | 33 nM | 160 nM |
| CC[C@H](C)NC(=O)c1cc(-c2cnn([C@H](c3ccc(F)cc3)C(C)C)c2)cn2nc(N)nc12 (single isomer, unassigned) [Example I-45] | 1.3 nM | 32 nM |

The next lines start with the values.

| IC50 (DLK) | IC50 (LZK) | SMILES |
| --- | --- | --- |
| 17 nM | 6.7 nM | CC[C@H](C)NC(=O)c1cc(-c2cnn(C3CCN(CC)CC3)c2)cn2nc(N)nc12 (single isomer, unassigned) [Example I-6] |
| 32 nM | 3.8 nM | CC[C@H](C)NC(=O)c1cc(-c2cnn(C3CCN(C(C)C)CC3)c2)cn2nc(N)nc12 (single isomer, unassigned) [Example I-7] |
| 68 nM | 9.4 nM | CC[C@H](C)NC(=O)c1cc(-c2cnn(C3CCN(C4COC4)CC3)c2)cn2nc(N)nc12 (single isomer, unassigned) [Example I-8] |
| 80 nM | 6.9 nM | CC[C@H](C)NC(=O)c1cc(-c2cnn(C3CCN(CC4COC4)CC3)c2)cn2nc(N)nc12 (single isomer, unassigned) [Example I-9] |
| 24 nM | 9 nM | CC[C@H](C)NC(=O)c1cc(-c2cnn(C3CCN(Cc4ccccc4)CC3)c2)cn2nc(N)nc12 (single isomer, unassigned) [Example I-10] |
| 82 nM | 14 nM | CC[C@H](C)NC(=O)c1cc(-c2cnn(C3CCN(C(C)=O)CC3)c2)cn2nc(N)nc12 (single isomer, unassigned) [Example I-11] |
| 120 nM | 70 nM | CC[C@H](C)NC(=O)c1cc(-c2cnn(C3CCCC3)c2)cc2nc(N)nn12 (single isomer, unassigned) [Example I-12] |
| 12 nM | 4.7 nM | CC[C@H](C)NC(=O)c1cc(-c2cnn(C3CCc4ccccc43)c2)cn2nc(N)nc12 (single isomer, unassigned) [Example I-14] |
| 31 nM | 7.8 nM | CC[C@H](C)NC(=O)c1cc(-c2cnn(C3CCc4ccccc43)c2)cn2nc(N)nc12 (single isomer, unassigned) [Example I-15] |
| 2.3 nM | 170 nM | CC[C@H](C)NC(=O)c1cc(-c2cnn(C(c3ccccc3)C3(C)CC3)c2)cn2nc(N)nc12 (single isomer, unassigned) [Example I-29] |
| 140 nM | 310 nM | CC[C@H](C)NC(=O)c1cc(-c2cnn(C(c3ccccc3)C3(C)CC3)c2)cn2nc(N)nc12 (single isomer, unassigned) [Example I-30] |
| 2.8 nM | 26 nM | CC[C@H](C)NC(=O)c1cc(-c2cnn(C(COC)c3ccccc3)c2)cn2nc(N)nc12 (single isomer, unassigned) [Example I-41] |
| 9.8 nM | 37 nM | CC[C@H](C)NC(=O)c1cc(-c2cnn(C(COC)c3ccccc3)c2)cn2nc(N)nc12 (single isomer, unassigned) [Example I-42] |
